Usually Kd stands for the constant that tells how readily two partners part at equilibrium. Read a low Kd as higher affinity.

The target of data set [1] is T1, HIV-1 CA (Human immunodeficiency virus type 1 group M subtype B, UniProt P12493).
T1 construct: Wild-type HIV-1 CA was overexpressed and purified as previously described; made in house
Briefly: In vitro CA assembly, negative-stain electron microscopy. The note with it: 50 μΜ CA, 0.25- to 3.0-fold molar equivalent of peptide. The format is biochemical.
Method: Briefly, stock proteins were adjusted to the appropriate concentration (25 μΜ for Gag protein or 50 μΜ for CA protein) with the Na2HPO4 buffer at pH 8.0. […] Negative staining was used to check the assembly. Carbon-coated copper grids (200 mesh size; EM Sciences) were treated with 20 μl of poly-L-lysine (1 mg/ml; Sigma) for 2 min. 20 μl of reaction solution was placed onto the grid for 2 min. Spotted grids were then stained with 30 μl of uranyl acetate solution for 2 min. Excess stain was removed, and grids were air-dried. Specimens were examined with a TECNAI G^2 electron microscope (FEI, OR, USA).

For data set [2], the target named is T1, HIV-1 CA. Briefly: Turbidity-based in vitro CA assembly assay. The format is biochemical. To be noted: turbidity at 350 nm. How it is done: The ability of stapled peptides to disrupt CA-CA interactions was also assessed using a turbidity-based in vitro CA assembly assay. This assay is based on the observation that the turbidity of a CA-containing solution increases in proportion to the extent of assembly.
Wild-type HIV-1 CA was overexpressed and purified as previously described. […] Turbidity assays were carried out in triplicate using a Beckman spectrophotometer at a wavelength of 350 nm to monitor HIV-1 in vitro assembly conducted at ambient temperatures. Protein samples were prepared in an assembly buffer [50 mM NaPO4 pH 8.0]. In vitro assembly reactions were prepared with 250 μl of assembly buffer containing 60 μM protein. To catalyze CA assembly 250 μl of an assembly buffer containing 5M NaCl was added. The solution was mixed by agitation and transferred a cuvette for a total delay of 20 seconds. Assembly was monitored every 10 sec for the first min and every min thereafter for a total 10 min. Assembly reactions with stapled peptides were incubated in the assembly buffer for 10 min and then centrifuged for 1 min to separate any insoluble fractions before catalyzing assembly.

For data set [3], the system named is HIV-1 pNL4-3. The experiment in a line: Virus assembly and release assay, Gag processing. The format is cell-based. The note with it: 293T cells transfected with pNL4-3, peptide for 16–20 h, ratio of Pr55Gag to p24. How it is done: This inhibition was specific to HIV-1 as the release of another lentivirus, equine infectious anemia virus (EIAV), was not inhibited. In this study we investigated whether i,i + 7 stapled CAI-derived peptides have any effect on virus release. 293T cells were transfected with the full-length HIV-1 molecular clone pNL4-3, treated with stapled peptides for 16–20 h, and metabolically labeled with [^35S]Met/Cys. The cell- and virus-associated proteins were immunoprecipitated with HIV-Ig.
Figure 6 i + 7 stapled peptides have no effect on HIV-1 release, but impair Gag processing. […] Cells were metabolically labeled with [^35S]Met/Cys for 2 h. Cells were lysed and virions were collected by ultracentrifugation. Cell and virus lysates were immunoprecipitated with HIV-Ig and subjected to SDS-PAGE. Protein band intensities were quantified by phosphorimager analysis, and HIV-1 release was calculated as the amount of virion-associated p24 relative to total (cell- plus virion-associated) Gag. (b) Accumulation of unprocessed Gag in cells was measured by calculating the ratio of Pr55^Gag to p24 in cells. P values were calculated by Student’s t-test, with P < 0.05 considered significant. N = 3, ± SD.
293T cells, plated at 3 × 10^5 cells/well in 12 well plates, were transfected with the HIV-1 molecular clone pNL4-3 [69]. […] One day posttransfection, cells were metabolically labeled with [^35S]Met/Cys for 2 h. The labeled virions were pelleted in an ultracentrifuge, and the virus and cell lysates were immunoprecipitated with pooled sera from HIV-1-infected patients (HIV-Ig, obtained from the ARP) and subjected to SDS-PAGE. Protein band intensities were quantified by phosphorimager analysis, and virus release was calculated as the amount of virion-associated Gag as a fraction of total (cell- plus virion-associated) Gag synthesized during the metabolic labeling period. Accumulation of Pr55^Gag in cells was measured by calculating the ratio of Pr55^Gag to p24 (CA).

For data set [4], the system named is HIV-1 pNL4-3 (WT). The format is cell-based.
Data set [5] relates to WT HIV-1 (NL4-3). Type of data set: cell-based.
The subject of data set [6] is HIV-1 V120Q/A327P Env mutant. Type of data set: cell-based.
Data set [7] relates to WT NL4-3. The experiment in a line: Spreading virus replication in Jurkat T-cell line, RT activity, WT. The format is cell-based, HIV-1.
Data set [8] concerns WT NL4-3. Briefly: Virus replication in PBMC, WT. The format is cell-based, HIV-1. The note with it: PBMC from three donors, 30 μM peptide, RT activity.
In data set [9] the test system is V120Q/A327P mutant. Briefly: Virus replication in PBMC, Env mutant. The format is cell-based, HIV-1. The note with it: PBMC from three donors, 30 μM peptide, RT activity.
Data set [10] concerns N-terminal and C-terminal V3 loop peptides. The experiment in a line: ITC binding to N-terminal and C-terminal V3 loop peptides. Details: species or system HIV-1. The note with it: overlapping 15-mer V3 peptides. As for the experimental part:
(§1) We also used ITC to measure the binding affinity of the stapled peptides to full-length cyclic V3 loop peptide.
(§2) Full-length V3 peptide (Cat# 1840), cyclic V3 peptide (Cat# 1837) and 15-mer overlapping V3 peptides (Cat# 1832, 6282, 6283, 6284, 6285, 6287, 6288, 6289, 6290 and 6291, for amino acid sequence see HIV-1 Subtype B (MN) Env Peptides - Complete Set Cat# 6451) were obtained through the NIH ARP.
(§3) For forward titration, 90 μM full-length V3 peptide, full-length cyclic V3 peptide or 90 μM 15-mer V3 peptides were titrated into 4.5 μM of stapled or linear peptides. Reference measurements were performed by titrating 90 μM full-length V3 peptide, full-length cyclic V3 peptide or 15-mer V3 peptide into buffer without peptide. For reverse titration, 90 μM stapled peptide was titrated into 4.5 μM full-length V3 peptide, full-length cyclic V3 peptide or […]. Reference measurements were performed by titrating 90 μM stapled peptide into buffer without peptide.

The target of data set [11] is tip of V3 loop (15-mer V3 tip peptide). The experiment in a line: ITC binding to 15-mer V3 tip peptide. Further details: species or system HIV-1. To be noted: 90 μM 15-mer V3 tip peptide titrated into 4.5 μM peptide, single-site model. How it is done: as §1, §2, §3
The test system of data set [12] is MT-2 cells.
Data set [13] concerns 293T cells.
For data set [14] the following is noted: not told; cited from earlier work. From the text: In 2005, a 12-mer peptide (CAI), identified by phage-display, was reported to disrupt both immature- and mature-like particles in vitro by targeting the C-terminal domain (CTD) of HIV-1 CA [21]. […] Subsequently, we converted CAI to a cell-penetrating peptide (NYAD-1) by using a hydrocarbon stapling technique and confirmed its binding to the CTD [24]. NYAD-1, which is an i,i + 4 staple peptide, disrupts the formation of both immature- and mature-like particles in cell-free and cell-based assembly s ... || We previously reported that an i,i + 4 stapled peptide, NYAD-1, penetrates cells and disrupts virus assembly in both in vitro and cell-based assays. […] In addition, direct binding analyses by ITC and NMR confirmed that NYAD-1 binds to the CTD of CA. These findings motivated us to expand the scope of our drug discovery effort on hydrocarbon-stapled peptides as assembly and maturation inhibitors to an i,i + 7 series of stapled peptides. This approach allowed us to explore res ...

Where a SMILES comes first, the peptide text is derived from it. Bridges are numbered along the chain shown (N, C = ends). Where no end group is shown, it is not given here. [ ]: non-standard residue; d: D form. R8 = C=CCCCCCC[C@@](C)(N)C(=O)O; S5 = C=CCCC[C@](C)(N)C(=O)O A value given as a limit tells only on which side of the number the result lay.

Consider `CC[C@H](C)[C@H](NC(C)=O)C(=O)N[C@@H](CO)C(=O)N[C@@H](Cc1ccccc1)C(=O)N[C@]1(C)CCCCCCC=CCCC[C@@](C)(C(=O)N[C@@H](CCC(=O)O)C(=O)N[C@@H](CO)C(=O)NCC(=O)N[C@@H](CO)C(N)=O)NC(=O)[C@H](Cc2ccc(O)cc2)NC(=O)[C@H](Cc2ccc(O)cc2)NC(=O)[C@H](CC(=O)O)NC(=O)[C@H](CC(C)C)NC(=O)[C@H](CC(C)C)NC(=O)[C@H](CCC(=O)O)NC1=O` [NYAD-36] (Ac-ISF[R8]ELLDYY[S5]ESGS-NH2; staple 4-11), for which the “Effect on CA tube assembly, EM (in words)” value in data set [1] was “either severely damaged or disintegrated”. Besides, in [2] (50 mM NaPO4 pH 8.0), the “Effect on CA assembly, turbidity (in words)” value is on record as “reduced the extent of CA assembly in a dose-dependent manner”. Besides, the “initial rate of CA assembly” value in [2] (compound:CA ratio 2:1, mean ± standard deviation from three experiments, DMSO control 216 ± 6.23) is 158 ± 24.71 mOD/min. The “Accumulation of cell-associated Pr55Gag (in words)” value in data set [3] is recorded as “modest accumulation of cell-associated Pr55^Gag”. Further, the “reduction in infectivity of virions produced from treated cells” value in [4] is “four-fold”. For the same molecule, in data set [5], the “fold reduction of virus infectivity, WT” value was over 10 fold. Besides, the “fold reduction of virus infectivity, V120Q/A327P double mutant” value in [6] is given as ~ 2.5 fold. Besides, the “virus replication (in words)” value was “significantly delayed” in [7] (Jurkat cells transfected with pNL4-3 (WT), 37.5 μM peptide); “virus replication peaked approximately six days posttransfection” in data set [7] (Jurkat cells transfected with pNL4-3, 25 μM peptide); “no replication was detected” in data set [7] (Jurkat cells transfected with pNL4-3, 50 μM peptide); “strongly inhibited replication of WT NL4-3 in PBMC” in data set [8]; “showed some antiviral activity against the V120Q/A327P mutant” in [9]. In addition, the “binding to N-terminal and C-terminal V3 loop peptides (in words)” value in [10] is on record as “neither N-terminal nor C-terminal V3 loop peptides bind”. In addition, in data set [11], binding was put at a Kd of 15.1 ± 3.78 µM. Besides, the “CC 50 (μM ± SD) in MT-2” value in data set [12] is over 189.4 µM. In addition, the “Cell penetration (in words)” value in [13] is on record as “penetrate cells less efficiently than NYAD-1”.

Turning to “ITFEDLLDYYGP-NH2 [CAI, reference compound]”, in data set [12], the “CC 50 (μM ± SD) in MT-2” value is over 100 µM. For the same molecule, the “cell permeability (in words)” value in data set [14] is “lack of cell permeability”.

The record behind these values is publication PMC3842668, “Dual-acting stapled peptides target both HIV-1 entry and assembly” (Retrovirology, 2013).
